From US6286513A, “Methods for treating superficial bladder carcinoma” (priority 1998, dated 2001)

Assays:
[1] = system: recurrent Ta, T1 or Tis tumors; test: Recurrence in patients with recurrent tumors (Example 2, FIG. 12); assay type: in vivo; conditions: for median time to recurrence / projected 5-year tumor recurrence free rate: recurrent tumors
Protocol: Seventy-seven patients from whom recurrent Ta, T1 or Tis tumors had been resected were treated weekly for six weeks with the high efficacy therapy as described above in example 1 and 68 patients from whom recurrent Ta, T1 or Tis tumors had been resected were treated by the customary experimental therapy as described in example 1. All patients had undergone at least one previous round of therapy, to several previous rounds of resection plus chemotherapy consisting of treatment with BCG, MMC, doxorubicin and doxorubicin and cisplatin. For example, 44 patients treated with the high efficacy treatment and 42 patients treated with the customary experimental method had at least two tumor resections. Thirty-eight patients in each of the two treatment arms fad received previous tumor resections plus at least one series of adjuvant chemotherapy. All patients were evaluated as described in example 1.

[2] = system: multifocal Ta, T1, Tis tumors; test: Recurrence in patients with multifocal tumors (Example 3, FIG. 9); assay type: in vivo
Protocol: Sixty-five of patients from whom 3 or more Ta, T1,or Tis tumors had been removed were treated weekly for six weeks with the high efficacy therapy as described above in example 1 and 52 patients from whom 3 or more Ta, T1, or Tis tumors had been removed were treated weekly for six weeks with standard MMC intravsical therapy as described in example 1. All patients received the follow-up described in example 1.

Tis tumors = test: Recurrence in patients with Tis tumors (Example 4); assay type: in vivo
Protocol: Ten patients from whom one or more foci of Tis had been removed were treated weekly for six weeks with the high efficacy therapy as described above in example 1 and 12 patients from whom one or more foci of Tis had been removed were treated weekly for six with the standard MMC intravesical therapy as described in example 1. […] The projected 5-year recurrence free rate is 43% for the high efficacy treatment and 19% for the standard treatment.

[3] = system: low grade tumors (grade I and grade II); test: Recurrence in patients with low grade tumors (Example 5); assay type: in vivo
Protocol: Eighty-one patients from whom low grade tumors (i.e., grade I and grade II) had been removed were treated weekly for six weeks with the high efficacy therapy as described above in example 1 and 64 patients from whom low grade tumors were had been removed were treated weekly for six weeks with the customary experimental therapy as described in example 1. All patients were evaluated as described in example 1. The median time to recurrence was 637 days for patients treated by the high efficacy treatment versus 339 days for patients treated by the customary experimental treatment. The projected 5-year recurrence free value is 35% for the high efficacy treatment and 21% for the customary experimental treatment.

Ta tumors = test: Recurrence in patients with Ta tumors (Kaplan-Meier); assay type: in vivo
From the text: The Kaplan-Meier Curve is a conventional tool used to project treatment outcome such as the % of patients who remain alive or free of disease at a certain time interval. (Martin Bland, Introduction to Medical Statistics (1994) Oxford Press). The Kaplan Meier Curve was used to compare the customary experimental therapy to the high efficacy therapy. When compared to the customary experimental therapy, the high efficacy therapy increased the percentage of all patients who are projected to remain recurrence-freefor longer than 5 years from 20 to 41%. The improvement was similar for patients with T1 tumors which were growing in the deeper bladder tissue layers (i.e. increase from 16% to 44%) and for patients with Ta tumors which were growing in the urothelial surface of the bladder (i.e. increase from 20% to 37%).

[4] = Toxicity comparison of high efficacy and customary intravesical MMC therapy (Table 1); assay type: in vivo, patients
[5] = Blood levels of MMC during high efficacy therapy; assay type: in vivo, patients
[6] = system: large tumors, i.e. tumors >5 cm; test: Recurrence in patients with large tumors; assay type: in vivo; conditions: high efficacy therapy; large tumors >5 cm
aneuploid tumors = test: Recurrence in patients with aneuploid tumors; assay type: in vivo; conditions: high efficacy therapy
[7] = previous studies, cited from earlier work
[8] = customary experimental treatment

Q: What does the source list for `COC12C(COC(N)=O)C3=C(C(=O)C(C)=C(N)C3=O)N1CC1NC12` (stereo not shown) [MMC]?
A: median time to recurrence ([1]; customary experimental therapy): 339 days; projected 5-year tumor recurrence free rate ([1]; customary experimental therapy): 26%; median time to recurrence ([1]; high efficacy therapy): 754 days; projected 5-year tumor recurrence free rate ([1]; high efficacy therapy): 39%; delaying and preventing tumor recurrence, vs customary therapy ([1]; high efficacy therapy, recurrent tumors despite other adjuvant therapies): more effective; projected 5-year recurrence free rate ([2]; customary experimental therapy, multifocal tumors): 17%; projected 5-year recurrence free rate ([2]; high efficacy therapy, multifocal tumors): 32%; delaying and preventing tumor recurrence, vs customary therapy ([2]; high efficacy therapy, multiple tumors): more effective; median time to tumor recurrence ([2]; standard treatment (so in the source), multifocal tumors): 488 days; (median time to recurrence; words missing in text) (Tis tumors; [8]): 106 days; projected 5-year recurrence free rate (Tis tumors; high efficacy treatment): 43%; projected 5-year recurrence free rate (Tis tumors; standard treatment): 19%; median time to recurrence [3, 8]: 339 days; projected 5-year recurrence free value [3, 8]: 21%; median time to recurrence ([3]; high efficacy treatment): 637 days; projected 5-year recurrence free value ([3]; high efficacy treatment): 35%; percentage of patients projected to remain recurrence-free for longer than 5 years (Ta tumors; customary experimental therapy): 20%; percentage of patients projected to remain recurrence-free for longer than 5 years (Ta tumors; high efficacy therapy): 37%; Allergy ([4]; Customary (n = 96)): 9 % of patients; Any toxicity ([4]; Customary (n = 96)): 64 % of patients; Cramp ([4]; Customary (n = 96)): 17 % of patients; Cystitis ([4]; Customary (n = 96)): 18 % of patients; Dermal ([4]; Customary (n = 96)): 10 % of patients; Dysuria ([4]; Customary (n = 96)): 19 % of patients; Fatigue ([4]; Customary (n = 96)): 20 % of patients; Fever ([4]; Customary (n = 96)): 5 % of patients; Hematuria ([4]; Customary (n = 96)): 24 % of patients; Leukopenia ([4]; Customary (n = 96)): 0 % of patients; Malaise ([4]; Customary (n = 96)): 19 % of patients; Nausea ([4]; Customary (n = 96)): 9 % of patients; Pain ([4]; Customary (n = 96)): 17 % of patients; Thrombocytopenia ([4]; Customary (n = 96)): 0 % of patients; Urgency ([4]; Customary (n = 96)): 28 % of patients; Urinary frequency ([4]; Customary (n = 96)): 33 % of patients; Vomiting ([4]; Customary (n = 96)): 5 % of patients; Allergy ([4]; High efficacy (n = 104)): 13 % of patients; Any toxicity ([4]; High efficacy (n = 104)): 72 % of patients; Cramp ([4]; High efficacy (n = 104)): 15 % of patients; Cystitis ([4]; High efficacy (n = 104)): 24 % of patients; Dermal ([4]; High efficacy (n = 104)): 15 % of patients; Dysuria ([4]; High efficacy (n = 104)): 35 % of patients; Fatigue ([4]; High efficacy (n = 104)): 19 % of patients; Fever ([4]; High efficacy (n = 104)): 5 % of patients; Hematuria ([4]; High efficacy (n = 104)): 26 % of patients; Leukopenia ([4]; High efficacy (n = 104)): 1 % of patients; Malaise ([4]; High efficacy (n = 104)): 18 % of patients; Nausea ([4]; High efficacy (n = 104)): 12 % of patients; Pain ([4]; High efficacy (n = 104)): 17 % of patients; Thrombocytopenia ([4]; High efficacy (n = 104)): 0 % of patients; Urgency ([4]; High efficacy (n = 104)): 22 % of patients; Urinary frequency ([4]; High efficacy (n = 104)): 26 % of patients; Vomiting ([4]; High efficacy (n = 104)): 4 % of patients; bone marrow toxicity ([4]; high efficacy therapy): did not exhibit any signs of bone marrow toxicity; dysuria, frequency and severity ([4]; high efficacy therapy): higher frequency of dysuria. But this toxicity was mild and did not result in termination of treatment; other toxicities (dysuria, cystitis, hematuria, cramps), severity ([4]; high efficacy therapy, a small number of patients): mild; blood levels of MMC, in most instances [5]: less than 5 ng/ml; levels of MMC in the blood of the patients, upper bound [5]: ≤ 50 ng/mL; delaying and preventing tumor recurrence, vs customary therapy [6]: more effective; delaying and preventing tumor recurrence, vs customary therapy (aneuploid tumors): more effective; systemic dose without significant host toxicity ([7]; MMC given systemically): ≤ 50 mg; blood level of MMC without significant host toxicity [7]: below 400 ng/ml
